According to article PMC9173702 (ACS chemical biology, 2022):
One block for each compound: values may come before it.

Legend:
mice = test: In vivo glucose tolerance test (GTT); set-up: species or system mouse; conditions: male B6 mice, 16 h fast, 10 nmol/kg IP peptide, then 2 g/kg IP glucose; blood glucose 0-120 min; n = 8; one-way ANOVA, Dunnett's post-test
Procedure: Given the promising activation and stability data, we next tested our peptides in vivo using a standard glucose tolerance test (GTT). More specifically, following a 16h fast, mice were injected intraperitoneally (IP) with 10 nmol/kg peptide followed by 2 g/kg of glucose.
In Vivo GTT Test: Male B6 mice at 10−12 weeks of age were housed (8 mice/cage) at a constant RT of 24 °C on a normal day-light cycle and provided a standard diet ad libitum. After 1 week of acclimatization, B6 mice (n = 8 per treatment arm) were fasted for 16 h overnight, and the following morning baseline blood glucose levels were measured (OneTouch), followed by intraperitoneal (IP) injection of vehicle (saline) or the indicated peptide (10 nmol/kg). Thirty minutes later, the mice were treated with a bolus IP injection of glucose (2 g/kg, 20% aqueous solution), followed by serial blood glucose monitoring at 0, 15, 30, 60, and 120 min. Samples for the measurement of blood glucose were obtained from the saphenous vein and collected into heparinized capillary tubes. All animal experiments were approved by and performed in accordance with the guidelines and regulations set forth by the Institutional Animal Care and Use Committee of the Dana-Farber Cancer Institute.

[1] = clinically marketed as Forteo; cited from earlier work
[2] = Human serum stability assay (RP-HPLC); conditions: 50% (v/v) human serum, 50 μM peptide, 37 °C, up to 48 h, n = 3
Procedure: Human Serum Stability Assay: Stock solutions of the peptides (10 mM in DMSO) and reconstituted normal human serum (Thermo Scientific) were pre-equilibrated to 37 °C for 15 minutes in separate tubes. For each replicate, peptides and serum were combined to a final concentration of 50 μM and 50% (v/v) respectively, final volume of 150 μL. The reaction tubes were then incubated at 37 °C with 300 rpm shaking in an Eppendorf ThermoMixer. At each time point, 20 μL of the reaction was taken from each replicate and diluted with four-fold excess of cold acetone. The serum proteins were allowed to precipitate for 15 minutes at -20 °C and were removed by centrifugation at 14,000 g, 4 °C for 10 minutes. The supernatant was transferred to a new tube, diluted with the same volume of water, and were stored at -20 °C until HPLC analysis. Chromatographic separations were performed on a C18 reversed phase analytical column (Higgins Analytical, 150x4.6 mm, 5 μm pore size) using a 30-50% B linear gradient over 30 minutes. Solvent A consisted of 0.1% (v/v) TFA in water, and solvent B contained 90% acetonitrile, 0.1% TFA in water.

[3] = Solubility of stock solution for CD spectroscopy; type: physicochemical; conditions: 5 mM stock in 10% acetonitrile

Compound: CCCCCCCCCCCCCCCCCCOCCOCCOCCOCCOCCC(=O)N[C@@H](CO)C(=O)NCCCC[C@H](NC(=O)[C@H](C)NC(=O)[C@H](C)NC(=O)[C@H](CCC(N)=O)NC(=O)CNC(=O)[C@H](CCC(=O)O)NC(=O)[C@H](CC(C)C)NC(=O)[C@H](Cc1ccc(O)cc1)NC(=O)[C@H](CO)NC(=O)[C@H](CO)NC(=O)[C@@H](NC(=O)[C@H](CC(=O)O)NC(=O)[C@H](CO)NC(=O)[C@@H](NC(=O)[C@H](Cc1ccccc1)NC(=O)[C@@H](NC(=O)CNC(=O)[C@H](CCC(=O)O)NC(=O)C(C)(C)NC(=O)[C@@H](N)Cc1c[nH]cn1)[C@@H](C)O)[C@@H](C)O)C(C)C)C(=O)N[C@@H](CCC(=O)O)C(=O)N[C@@H](Cc1ccccc1)C(=O)N[C@H](C(=O)N[C@@H](C)C(=O)N[C@@H](Cc1c[nH]c2ccccc12)C(=O)N[C@@H](CC(C)C)C(=O)N[C@H](C(=O)N[C@@H](CCCCN)C(=O)NCC(=O)N[C@@H](CCCNC(=N)N)C(=O)NCC(=O)O)C(C)C)[C@@H](C)CC [G1]
glycemic control in acute GTT (blood glucose AUC) compared to unmodified GLP-1 (mice): statistically significant glycemic control

Compound: PTH(1–34): clinically marketed by Eli Lilly as Forteo
half-life in the blood [1]: ~ 5 minutes

stability in human serum (in words) [2]: almost no sign of degradation up to 48 h
solubility as stock [3]: not soluble
Compound: CC[C@H](C)[C@H](NC(=O)[C@H](Cc1ccccc1)NC(=O)[C@H](CCC(=O)O)NC(=O)[C@H](CCCCNC(=O)COCCOCCNC(=O)COCCOCCNC(=O)CC[C@H](NC(=O)CCCCCCCCCCCCCCCCC(=O)O)C(=O)O)NC(=O)[C@H](C)NC(=O)[C@H](C)NC(=O)[C@H](CCC(N)=O)NC(=O)CNC(=O)[C@H](CCC(=O)O)NC(=O)[C@H](CC(C)C)NC(=O)[C@H](Cc1ccc(O)cc1)NC(=O)[C@H](CO)NC(=O)[C@H](CO)NC(=O)[C@@H](NC(=O)[C@H](CC(=O)O)NC(=O)[C@H](CO)NC(=O)[C@@H](NC(=O)[C@H](Cc1ccccc1)NC(=O)[C@@H](NC(=O)CNC(=O)[C@H](CCC(=O)O)NC(=O)C(C)(C)NC(=O)[C@@H](N)Cc1cnc[nH]1)[C@@H](C)O)[C@@H](C)O)C(C)C)C(=O)N[C@@H](C)C(=O)N[C@@H](Cc1c[nH]c2ccccc12)C(=O)N[C@@H](CC(C)C)C(=O)N[C@H](C(=O)N[C@@H](CCCNC(=N)N)C(=O)NCC(=O)N[C@@H](CCCNC(=N)N)C(=O)NCC(=O)O)C(C)C [Semaglutide]
